Reference: patent publication US6579967B1, “Receptor-selective somatostatin analogs” (The Salk Institute for Biological Studies, priority 1999, dated 2003)
Entries after “also recorded” stand apart in the source; their conditions may differ. Like-named read-outs stand apart in the source and are kept apart here.

How the values were obtained:
Format in all cases: binding
human SSTR1 = molecular target: T1, human SSTR1 (Homo sapiens, UniProt P30872); assay: Displacement of 125I-[Leu8,D-Trp22,Tyr25]-somatostatin-28 from cloned SSTR1 (receptor autoradiography on membrane pellets)
T1 construct: expressed in transfected cells; host or cells: CHO-K1 cells and CCL39 cells
T1 sequence (P30872 whole entry): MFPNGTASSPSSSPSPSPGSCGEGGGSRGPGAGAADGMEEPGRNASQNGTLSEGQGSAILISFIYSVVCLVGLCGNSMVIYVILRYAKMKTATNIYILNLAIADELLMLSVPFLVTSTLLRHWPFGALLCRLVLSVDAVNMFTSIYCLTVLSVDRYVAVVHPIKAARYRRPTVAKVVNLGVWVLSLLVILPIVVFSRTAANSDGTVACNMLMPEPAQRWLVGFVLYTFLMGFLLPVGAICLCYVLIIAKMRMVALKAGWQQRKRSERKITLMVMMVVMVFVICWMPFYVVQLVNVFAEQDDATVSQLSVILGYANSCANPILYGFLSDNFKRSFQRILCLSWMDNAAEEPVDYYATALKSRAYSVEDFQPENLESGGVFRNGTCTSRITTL
Procedure: (§1) Generally, recombinant cells expressing the receptor are washed and homogenized to prepare a crude protein homogenate in a suitable buffer, as known in the art. In a typical assay, an amount of protein from the cell homogenate is placed into a small volume of an appropriate assay buffer at an appropriate pH. Candidate substances, such as potential SRIF agonists and antagonists, are added to the admixture in convenient concentrations, and the interaction between the candidate substance and the receptor polypeptide is monitored.
(§2) Receptor binding assays are performed on cloned SRIF receptors as generally set forth in Raynor et al. supra. Using such assays, one can generate KD values which are indicative of the concentration of a ligand necessary to occupy one-half (50%) of the binding sites on a selected amount of a receptor or the like, or alternatively, competitive assays can generate IC50 values which are indicative of the concentration of a competitive ligand necessary to displace a saturation concentration of a target ligand being measured from 50% of binding sites.
(§3) In vitro Bioassay: The various somatostatin analogs are tested in vitro for their ability to bind to isolated cloned receptors expressed on CHO-K1 cells and CCL39 cells. CHO-K1 cells are grown in Ham's F-12 medium, and CCL39 cells are grown in Dulbecco's modified Eagle's medium/Ham's F-12(1:1) mix, supplemented with 10% fetal bovine serum, 100 U/ml penicillin and 100 μg/ml streptomycin, in humidified air containing 5% CO2 at 37° C.
(§4) Cells are washed twice with and scraped into ice-cold 0.05 M Tris-HCl (pH 7.4), collected by centrifugation, and homogenized using a rotor/stator slash system in the same buffer. After centrifugation at 120 g for 5 min. at 4° C., the supernatant is collected and centrifuged again at 48,000 g for 30 min. at 4° C. The resulting pellet is resuspended in ice-cold Tris buffer, transferred into a microfuge tube, and centrifuged at 20,000 g for 15 min. at 4° C. After withdrawal of the supernatant, the membrane pellet is stored at −80° C.
(§5) Receptor autoradiography is performed on 20 μm thick cryostat sections of the membrane pellets, mounted on microscope slides, and then stored at −20° C. […] […] Unlabeled somatostatin-28 is run in parallel using the same increasing concentrations, as a control. IC50 values are calculated after quantification of the data using a computer-assisted image processing system as known in this art.

human SSTR2 = molecular target: T2, human SSTR2 (Homo sapiens, UniProt P30874); assay: Displacement of 125I-[Leu8,D-Trp22,Tyr25]-somatostatin-28 from cloned SSTR2 (receptor autoradiography on membrane pellets)
T2 construct: expressed in transfected cells; host or cells: CHO-K1 cells and CCL39 cells
T2 sequence (P30874 whole entry): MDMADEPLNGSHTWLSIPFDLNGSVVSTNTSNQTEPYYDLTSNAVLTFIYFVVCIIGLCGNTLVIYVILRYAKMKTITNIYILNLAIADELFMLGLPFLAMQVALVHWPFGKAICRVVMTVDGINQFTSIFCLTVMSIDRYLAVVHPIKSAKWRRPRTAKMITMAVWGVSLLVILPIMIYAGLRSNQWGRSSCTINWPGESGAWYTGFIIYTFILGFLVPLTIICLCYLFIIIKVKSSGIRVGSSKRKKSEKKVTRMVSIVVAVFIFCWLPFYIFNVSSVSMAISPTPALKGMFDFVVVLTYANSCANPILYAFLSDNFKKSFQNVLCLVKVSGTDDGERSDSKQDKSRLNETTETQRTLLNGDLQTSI
Procedure: as §1, §2, §3, §4, §5

human SSTR3 = molecular target: T3, human SSTR3 (Homo sapiens, UniProt P32745); assay: Displacement of 125I-[Leu8,D-Trp22,Tyr25]-somatostatin-28 from cloned SSTR3 (receptor autoradiography on membrane pellets); details: for relative potency at SSTR3 by comparison to SRIF-28: binding affinity relative to SRIF-28 (=1); for binding strength and selectivity for SSTR3, in words: qualitative statement
T3 construct: expressed in transfected cells; host or cells: CHO-K1 cells and CCL39 cells
T3 sequence (P32745 whole entry): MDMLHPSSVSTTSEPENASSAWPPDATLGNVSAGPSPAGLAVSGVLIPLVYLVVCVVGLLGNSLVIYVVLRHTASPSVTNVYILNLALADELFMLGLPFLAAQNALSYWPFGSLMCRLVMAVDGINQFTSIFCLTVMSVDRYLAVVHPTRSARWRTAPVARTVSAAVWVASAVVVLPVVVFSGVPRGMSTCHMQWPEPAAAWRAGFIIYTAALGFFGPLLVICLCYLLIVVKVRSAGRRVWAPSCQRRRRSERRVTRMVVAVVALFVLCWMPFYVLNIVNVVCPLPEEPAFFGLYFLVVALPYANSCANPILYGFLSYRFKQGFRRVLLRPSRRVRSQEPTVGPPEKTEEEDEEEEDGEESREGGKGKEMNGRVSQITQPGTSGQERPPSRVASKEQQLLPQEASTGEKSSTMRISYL
Procedure: as §1
as §2, with “sites. The peptide des-AA^1,2,4,5,12,13-[D-Agl^8(Me,2-naphthoyl)]SRIF inhibits the binding to SSTR3 of an iodinated SRIF-28 ligand that has strong affinity for all five receptors.” for “sites.”
as §3, §4
(§6) Receptor autoradiography is performed on 20 μm thick cryostat sections of the membrane pellets, mounted on microscope slides, and then stored at −20° C. For each of the tested compounds, complete displacement experiments are performed with the universal somatostatin ligand radioligand ^125I-[Leu^8,D-Trp^22,Tyr^25]-somatostatin-28 that binds with strong affinity to all five receptors. Increasing concentrations of the unlabeled peptide are used ranging from 0.1-1000 nM. Unlabeled somatostatin-28 is run in parallel using the same increasing concentrations, as a control. IC50 values are calculated after quantification of the data using a computer-assisted image processing system as known in this art.
(§7) The potencies of certain SRIF analogs to inhibit radioligand binding of ^125I-[Leu^8,D-Trp^22,[…]]SRIF-28 to the various cloned SRIF receptors are shown in the following table wherein the IC50 values are given in nanomolar concentration.

human SSTR4 = molecular target: T4, human SSTR4 (Homo sapiens, UniProt P31391); assay: Displacement of 125I-[Leu8,D-Trp22,Tyr25]-somatostatin-28 from cloned SSTR4 (receptor autoradiography on membrane pellets)
T4 construct: expressed in transfected cells; host or cells: CHO-K1 cells and CCL39 cells
T4 sequence (P31391 whole entry): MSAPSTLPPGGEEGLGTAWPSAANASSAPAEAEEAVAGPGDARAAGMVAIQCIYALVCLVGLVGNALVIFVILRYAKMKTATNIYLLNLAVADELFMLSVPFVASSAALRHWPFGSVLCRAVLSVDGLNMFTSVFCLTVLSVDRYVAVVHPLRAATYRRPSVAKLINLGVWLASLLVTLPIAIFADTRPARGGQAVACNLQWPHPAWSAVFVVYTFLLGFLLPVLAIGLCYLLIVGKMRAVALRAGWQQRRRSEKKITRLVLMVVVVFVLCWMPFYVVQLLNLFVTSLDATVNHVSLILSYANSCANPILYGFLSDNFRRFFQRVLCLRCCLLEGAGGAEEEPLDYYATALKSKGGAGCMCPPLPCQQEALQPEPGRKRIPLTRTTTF
Procedure: as §1, §2, §3, §4, §5

human SSTR5 = molecular target: T5, human SSTR5 (Homo sapiens, UniProt P35346); assay: Displacement of 125I-[Leu8,D-Trp22,Tyr25]-somatostatin-28 from cloned SSTR5 (receptor autoradiography on membrane pellets)
T5 construct: expressed in transfected cells; host or cells: CHO-K1 cells and CCL39 cells
T5 sequence (P35346 whole entry): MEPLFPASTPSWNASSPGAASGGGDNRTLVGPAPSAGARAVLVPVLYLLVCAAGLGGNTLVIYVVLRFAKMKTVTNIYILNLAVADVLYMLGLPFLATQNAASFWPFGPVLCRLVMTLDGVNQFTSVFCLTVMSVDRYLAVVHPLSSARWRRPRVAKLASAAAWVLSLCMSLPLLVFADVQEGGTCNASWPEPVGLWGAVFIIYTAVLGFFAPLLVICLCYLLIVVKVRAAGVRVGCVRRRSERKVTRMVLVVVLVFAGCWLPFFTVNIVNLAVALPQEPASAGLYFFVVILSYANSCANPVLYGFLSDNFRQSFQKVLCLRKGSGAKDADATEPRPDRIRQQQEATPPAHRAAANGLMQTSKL
Procedure: as §1
as §2, with “sites. The peptide des-AA^1,2,4,5,12,13-[D-Agl^8(Me,2-naphthoyl)]SRIF inhibits the binding to SSTR3 of an iodinated SRIF-28 ligand that has strong affinity for all five receptors.” for “sites.”
as §3, §4
as §6, with “Increasing concentrations of the unlabeled peptide are used ranging from 0.1-1000 nM.” left out
as §7

[1] = inhibition of 125I-[Leu8,D-Trp22,Tyr24]SRIF-28 binding, cloned receptor, read-out: IC50 (nM) mSSTR1
[2] = inhibition of 125I-[Leu8,D-Trp22,Tyr24]SRIF-28 binding, cloned receptor, read-out: IC50 (nM) mSSTR2
[3] = inhibition of 125I-[Leu8,D-Trp22,Tyr24]SRIF-28 binding, cloned receptor, read-out: IC50 (nM) mSSTR3
[4] = iodinated SRIF-28 ligand, cloned human receptor, read-out: IC50 at cloned human SSTR3
[5] = inhibition of 125I-[Leu8,D-Trp22,Tyr24]SRIF-28 binding, cloned receptor, read-out: IC50 (nM) mSSTR4
[6] = inhibition of 125I-[Leu8,D-Trp22,Tyr24]SRIF-28 binding, cloned receptor, read-out: IC50 (nM) mSSTR5
[7] = iodinated SRIF-28 ligand, cloned human receptor, read-out: concentration below which no binding to human SSTR1
[8] = iodinated SRIF-28 ligand, cloned human receptor, read-out: concentration below which no binding to human SSTR2
[9] = iodinated SRIF-28 ligand, cloned human receptor, read-out: concentration below which no binding to human SSTR4
[10] = iodinated SRIF-28 ligand, cloned human receptor, read-out: concentration below which no binding to human SSTR5

SMILES	IC50 (human SSTR1; [1]) [nM]	IC50 (human SSTR2; [2]) [nM]	relative potency at SSTR3 by comparison to SRIF-28 (human SSTR3)	IC50 (human SSTR3; [3]) [nM]	IC50 (human SSTR3; [4]) [nM]	binding strength and selectivity for SSTR3, in words (human SSTR3)	IC50 (human SSTR4; [5]) [nM]	IC50 (human SSTR5; [6]) [nM]	other results
C[C@@H](O)[C@@H]1NC(=O)[C@H](CCCCN)NC(=O)[C@@H](N(C)C(=O)c2ccc3ccccc3c2)NC(=O)[C@H](Cc2ccc(O)cc2)NC(=O)[C@H](Cc2ccccc2)NC(=O)[C@@H](N)CSSC[C@@H](C(=O)O)NC(=O)[C@H](Cc2ccccc2)NC1=O [Peptide No. 2, (cyclo)H-Cys-Phe-Tyr-D-Agl(Me,2Np)-Lys-Thr-Phe-Cys-OH]	> 10000	> 10000	about 0.13	70 ± 18	~70	selectively bound to SSTR3	> 1000	> 10000	effect on binding of the SRIF-28 radioligand to human SSTR1 (human SSTR1; peptide at 100 nM): minimal effects; effect on binding of the SRIF-28 radioligand to human SSTR2 (human SSTR2; peptide at 100 nM): minimal effects; binding strength and selectivity for SSTR3, in words (human SSTR3; listed as Peptide 2): bind strongly and selectively to SSTR3; effect on binding of the SRIF-28 radioligand to human SSTR4 (human SSTR4; peptide at 100 nM): minimal effects; effect on binding of the SRIF-28 radioligand to human SSTR5 (human SSTR5; peptide at 100 nM): minimal effects
C[C@@H](O)[C@@H]1NC(=O)[C@H](CCCCN)NC(=O)[C@@H](N(C)C(=O)c2ccc3ccccc3c2)NC(=O)[C@H](Cc2ccccc2)NC(=O)[C@H](Cc2ccccc2)NC(=O)[C@@H](N)CSSC[C@@H](C(=O)O)NC(=O)[C@H](Cc2ccccc2)NC1=O [Peptide No. 2B, (cyclo 3-14)H-Cys-Phe-Phe-D-Agl(Me,2Np)-Lys-Thr-Phe-Cys-OH]	> 10000	> 10000	about 0.13	70 ± 17	~70	selectively binds to SSTR3	> 10000	> 10000	IC50 (human SSTR1; [7]): > 10000 nM; IC50 (human SSTR2; [8]): > 10000 nM; IC50 at cloned human SSTR3 (human SSTR3; iodinated SRIF-28 ligand, cloned human receptor): about the same as No. 2; binding strength and selectivity for SSTR3, in words (human SSTR3; listed as Peptide 2B): bind strongly and selectively to SSTR3; IC50 (human SSTR4; [9]): > 1000 nM; IC50 (human SSTR5; [10]): > 10000 nM
C[C@@H](O)[C@@H]1NC(=O)[C@H](CCCCN)NC(=O)[C@@H](N(C)C(=O)c2ccc3ccccc3c2)NC(=O)[C@H](Cc2ccc(O)cc2)NC(=O)[C@H](Cc2ccccc2)NC(=O)[C@H](N)CSSC[C@@H](C(=O)O)NC(=O)[C@H](Cc2ccccc2)NC1=O [Peptide No. 2A, (cyclo 3-14)H-D-Cys-Phe-Tyr-D-Agl(Me,2Np)-Lys-Thr-Phe-Cys-OH]	> 10000	> 10000	about 0.24	39 ± 11	~39	selectively binds to SSTR3	> 10000	> 10000	binding strength and selectivity for SSTR3, in words (human SSTR3; listed as Peptide 2A): bind strongly and selectively to SSTR3
C[C@@H](O)[C@@H]1NC(=O)[C@H](CCCCN)NC(=O)[C@@H](N(C)C(=O)c2ccc3ccccc3c2)NC(=O)[C@H](Cc2ccccc2)NC(=O)[C@H](Cc2ccccc2)NC(=O)[C@H](N)CSSC[C@@H](C(=O)O)NC(=O)[C@H](Cc2ccccc2)NC1=O [Peptide No. 2D, (cyclo 3-14)H-D-Cys-Phe-Phe-D-Agl(Me,2Np)-Lys-Thr-Phe-Cys-OH]	> 10000	> 10000	about 0.08	115 ± 36	–	–	> 10000	> 1000	binding strength and selectivity for SSTR3, in words (human SSTR3; listed as Peptide 2D): bind strongly and selectively to SSTR3; also recorded: slightly less selective
C[C@@H](O)[C@@H]1NC(=O)[C@H](CCCCN)NC(=O)[C@@H](N(C)C(=O)c2ccc3ccccc3c2)NC(=O)[C@H](Cc2ccc(Cl)cc2)NC(=O)[C@H](Cc2ccccc2)NC(=O)[C@@H](N)CSSC[C@@H](C(=O)O)NC(=O)[C@H](Cc2ccccc2)NC1=O [Peptide No. 2C, (cyclo 3-14)H-Cys-Phe-4ClPhe-D-Agl(Me,2Np)-Lys-Thr-Phe-Cys-OH]	> 1000	> 1000	–	300	–	–	> 10000	> 10000	binding strength and selectivity for SSTR3, in words (human SSTR3; listed as Peptide 2C): bind strongly and selectively to SSTR3; also recorded: slightly less selective
C[C@@H](O)[C@@H]1NC(=O)[C@H](CCCCN)NC(=O)[C@@H](Cc2ccc3ccccc3c2)NC(=O)[C@H](N(C)C(=O)c2ccccc2)NC(=O)[C@H](Cc2ccccc2)NC(=O)[C@@H](N)CSSC[C@@H](C(=O)O)NC(=O)[C@H](Cc2ccccc2)NC1=O [Peptide No. 3, (cyclo 3-14)H-Cys-Phe-Agl(Me,Bz)-D-2Nal-Lys-Thr-Phe-Cys-OH]	> 10000	> 1000	–	80	~80	bind selectively to SSTR3; also recorded: selectively binds SSTR3	> 1000	> 1000	IC50 (human SSTR1; [7]): > 1000 nM; IC50 (human SSTR2; [8]): > 1000 nM; IC50 (human SSTR4; [9]): > 1000 nM; IC50 (human SSTR5; [10]): > 1000 nM
C[C@@H](O)[C@@H]1NC(=O)[C@H](CCCCN)NC(=O)[C@@H](N(C)C(=O)c2ccc3ccccc3c2)NC(=O)[C@H](Cc2ccc(Cl)cc2)NC(=O)[C@H](Cc2ccccc2)NC(=O)[C@H](N)CSSC[C@@H](C(=O)O)NC(=O)[C@H](Cc2ccccc2)NC1=O [Peptide No. 2E, (cyclo 3-14)H-D-Cys-Phe-4ClPhe-D-Agl(Me,2Np)-Lys-Thr-Phe-Cys-OH]	> 1000	> 1000	–	180	–	–	> 10000	> 1000	binding strength and selectivity for SSTR3, in words (human SSTR3; listed as Peptide 2E): bind strongly and selectively to SSTR3; also recorded: slightly less selective
